target: T1, PD-1/PD-L1 (Homo sapiens, UniProt Q9NZQ7); experiment: Detection of biological activity of PD-1/PD-L1 signaling inhibition at the cellular level (NFAT luciferase reporter, PD-1/NFAT-Reporter-Jurkat cells co-cultured with TCR activator/PD-L1-CHO cells); type: cell-based; conditions: PD-1/NFAT-Reporter-Jurkat + TCR activator/PD-L1-CHO co-culture, 6 hours; Atezolizumab as positive control
T1 construct: 60535 (PD-1/NFAT-Reporter-Jurkat); host or cells: CHO cells expressing PD-L1; Jurkat cells expressing PD-1
T1 sequence (Q9NZQ7 19-290): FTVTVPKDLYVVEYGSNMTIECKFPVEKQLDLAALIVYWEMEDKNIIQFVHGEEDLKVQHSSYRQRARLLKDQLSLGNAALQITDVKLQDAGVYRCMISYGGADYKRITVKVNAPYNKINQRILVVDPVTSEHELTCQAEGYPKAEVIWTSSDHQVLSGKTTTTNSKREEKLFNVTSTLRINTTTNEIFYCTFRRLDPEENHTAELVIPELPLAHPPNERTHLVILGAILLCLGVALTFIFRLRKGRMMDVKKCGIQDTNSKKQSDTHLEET
Text: Detection of Biological Activity of PD-1/PD-L1 Signaling Inhibition at the Cellular Level
This detection method is used for evaluating the biological activity of the compounds described in the present invention at the cellular level.
This detection method uses the luciferase reporter gene method to detect the biological activity of the compound on the inhibition of PD-1/PD-L1 signal at the cellular level. PD-1/NFAT—Reporter—Jurkat cells stably express human PD-1 and express the luciferase reporter gene regulated by NFAT elements; TCR activator/PD-L1-CHO cells stably express human PD-L1 and TCR activator elements. When the two cell lines were co-cultured, the binding of PD-1/PD-L1 inhibited the TCR signaling pathway, thereby inhibiting the expression of the downstream NFAT-controlled luciferase reporter gene. When PD-1/PD-L1 antibody or inhibitor is added, this inhibitory effect is reversed and luciferase is expressed, so that the effect of PD-1/PD-L1 inhibitor on luciferase activity can be detected.
PD-1/NFAT—Reporter—Jurkat cell (Cat: 60535) and TCR activator/PD-L1-CHO cell (Cat: 60536) were purchased from BPS Bioscience. Anti-human PD-L1 antibody (Atezolizumab, Cat: A2004) was purchased from Selleck; luciferase reporter gene expression detection kit (ONE-Glo™ Luciferase Assay System, Cat: E6120) was purchased from Promega; multifunction plate reader (SpectraMax i3x) was purchased from Molecular Devices.
The PD-1/NFAT—Reporter—Jurkat cells and TCR activator/PD-L1-CHO cells were cultured according to the routine cell culture protocol.
TCR activator/PD-L1-CHO cells were harvested and seeded into a 96-well culture plate at 35,000 cells/well in a medium volume of 100 μl and incubated overnight at 37° C. The next day, the medium was discarded, compound was added and incubated for 30 minutes, while a solvent control (dimethyl sulfoxide, DMSO, final concentration of 0.1%) and PD-L1 antibody (Atezolizumab, final concentration of about 10 nM) as positive controls were set. PD-1/NFAT-reporter-Jurkat cells were then added. After culturing for 6 hours, the luciferase activity was detected according to the instructions of the luciferase detection reagent.
Using PD-L1 antibody as a positive control, calculate the inhibition rate of PD-1/PD-L1 binding of the test compound (%)=(chemiluminescence value of compound treated wells/average value of chemiluminescence value of solvent control wells−1)/(average value of chemiluminescence value of PD-L1 antibody well/average value of chemiluminescence value of solvent control well−1)×100%.
According to the above detection method, the compounds of the present invention were evaluated for their biological activity at the cellular level, and the activity results are shown in the following table.

Compound	EC50 [nM]
COc1cc(Cn2ncc3c(-c4cccc(-c5ccc(CNC[C@@H]6CCC(=O)N6)c(Cl)c5)c4Cl)cccc32)c(Cl)cc1CN1CC[C@@H](C(=O)O)C1 [Compound 49]	850
COc1cc(-c2cccc(-c3cccc4c3cnn4Cc3cc(OC)c(CN(C)[C@H]4C[C@@H](C(=O)O)C4)cc3Cl)c2Cl)ccc1CNC[C@@H]1CCC(=O)N1 [Compound 104]	46
COc1cc(Cn2ncc3c(-c4cccc(-c5cc(F)c(CNC[C@@H]6CCC(=O)N6)c(OC)c5)c4Cl)cccc32)c(Cl)cc1CN(C)CC1CCC(C(=O)O)CC1 (stereo partly drawn) [Compound 101]	87
COc1cc(Cn2ncc3c(-c4cccc(-c5cc(F)c(CNC[C@@H]6CCC(=O)N6)c(OC)c5)c4Cl)cccc32)c(Cl)cc1CN(C)C12CCC(C(=O)O)(CC1)CC2 [Compound 116]	16
COc1cc(-c2cccc(-c3cccc4c3cnn4Cc3cc(OC)c(CN(C4CCC(C(=O)O)CC4)C4CC4)cc3Cl)c2Cl)ccc1CNC[C@@H]1CCC(=O)N1 (stereo partly drawn) [Compound 122]	320
COc1cc(Cn2ncc3c(-c4cccc(-c5cc(F)c(CNC[C@@H]6CCC(=O)N6)c(OC)c5)c4C)cccc32)c(Cl)cc1CN(C)C12CCC(C(=O)O)(CC1)CC2 [Compound 161]	75
COc1cc(-c2cccc(-c3cccc4c3cnn4Cc3nc(OC)c(CN(C)C45CCC(C(=O)O)(CC4)CC5)cc3Cl)c2Cl)cc(F)c1CNC[C@@H]1CCCC(=O)N1 [Compound 172]	32
COc1cc(-c2cccc(-c3cccc4c3cnn4Cc3cc(N)c(CN(C)[C@H]4CC[C@H](C(=O)O)CC4)cc3Cl)c2Cl)cc(F)c1CNC[C@@H]1CCC(=O)N1 [Compound 173]	222
N#Cc1cncc(COc2cc(Cn3ncc4c(-c5cccc(-c6ccc(CNC[C@@H]7CCC(=O)N7)nc6)c5Cl)cccc43)c(Cl)cc2CN[C@@H](CO)C(=O)O)c1 [Compound 10]	82
COc1cc(Cn2ncc3c(-c4cccc(-c5cc(F)c(CNC[C@@H]6CCC(=O)N6)c(OC)c5)c4Cl)cccc32)c(C#N)cc1CN(C)[C@H]1C[C@H](C(=O)O)C1 [Compound 139]	15
COc1cc(Cn2ncc3c(-c4cccc(-c5cc(F)c(CNC[C@@H]6CCCC(=O)N6)c(OC)c5)c4Cl)cccc32)c(Cl)cc1CN(C)C12CCC(C(=O)O)(CC1)CC2 [Compound 168]	69
COc1cc(Cn2ncc3c(-c4cccc(-c5ccc(CNC[C@@H]6CCC(=O)N6)cc5)c4Cl)cccc32)c(Cl)cc1CN1CC(C(=O)O)C1 [Compound 38]	809
CN(CCO)Cc1ccc(-c2cccc(-c3cccc4c3cnn4Cc3cc(OCc4cncc(C#N)c4)c(CN[C@@H](CO)C(=O)O)cc3Cl)c2Cl)cc1 [Compound 4]	206
COc1cc(-c2cccc(-c3cccc4c3cnn4Cc3cc(OC)c(CNC[C@H]4CC[C@H](C(=O)O)CC4)cc3Cl)c2Cl)ccc1CNC[C@@H]1CCC(=O)N1 [Compound 54]	38
COc1cc(-c2cccc(-c3cccc4c3cnn4Cc3nc(OC)c(CN(C)[C@H]4CC[C@H](C(=O)O)CC4)cc3Cl)c2Cl)cc(F)c1CNC[C@@H]1CCC(=O)N1 [Compound 163]	26
COc1cc(Cn2ncc3c(-c4cccc(-c5ccc(CN6CC[C@@H](C(=O)O)C6)cc5)c4Cl)cccc32)c(Cl)cc1CN1CC[C@@H](O)C1 [Compound 69]	805
COc1cc(-c2cccc(-c3cccc4c3cnn4Cc3cc(OC)c(CN(C)C4CCC(CCC(=O)O)CC4)cc3Cl)c2Cl)ccc1CNC[C@@H]1CCC(=O)N1 (stereo partly drawn) [Compound 121]	34
COc1cc(Cn2ncc3c(-c4cccc(-c5cc(F)c(CNC[C@@H]6CCC(=O)N6)c(OC)c5)c4Cl)cccc32)c(C(F)(F)F)cc1CN(C)C12CCC(C(=O)O)(CC1)CC2 [Compound 150]	30
COc1cc(Cn2ncc3c(-c4cccc(-c5cc(F)c(CNC[C@@H]6CCC(=O)N6)c(OC)c5)c4Cl)cccc32)c(C(F)(F)F)cc1CN(C)[C@H]1CC[C@H](CC(=O)O)CC1 [Compound 147]	32
COc1cc(Cn2ncc3c(-c4cccc(-c5ccc(CNC[C@@H]6CCC(=O)N6)cc5)c4Cl)cccc32)c(Cl)cc1CN1CCC[C@H]1C(=O)O [Compound 43]	537
COc1cc(Cn2ncc3c(-c4cccc(-c5cc(OC)c(CNC[C@@H]6CCC(=O)N6)c(OC)c5)c4Cl)cccc32)c(Cl)cc1CN(C)CC1CCC(C(=O)O)CC1 (stereo partly drawn) [Compound 102]	735

Compound	EC50 [nM]
N#Cc1cncc(COc2cc(Cn3ncc4c(-c5cccc(-c6ccc(CNC[C@@H]7CCC(=O)N7)cc6)c5Cl)cccc43)c(Cl)cc2CNCC(=O)O)c1 [Compound 22]	89
COc1cc(-c2cccc(-c3cccc4c3cnn4Cc3cc(OCc4cncc(C#N)c4)c(CN[C@@H](CO)C(=O)OC(C)C)cc3Cl)c2Cl)ccc1CNC[C@@H]1CCC(=O)N1 [Compound 28]	110
COc1nc(-c2cccc(-c3cccc4c3cnn4Cc3cc(OCc4cncc(C#N)c4)c(CNCCO)cc3Cl)c2Cl)ccc1CNC[C@@H]1CCC(=O)N1 [Compound 29]	66
COc1cc(Cn2ncc3c(-c4cccc(-c5ccc(CNC[C@@H]6CCC(=O)N6)c(OC)n5)c4Cl)cccc32)c(Cl)cc1CN(C)C12CCC(C(=O)O)(CC1)CC2 [Compound 133]	81
COc1cc(Cn2ncc3c(-c4cccc(-c5cc(F)c(CNC[C@@H]6CCC(=O)N6)c(OC)c5)c4Cl)cccc32)c([N+](=O)[O-])cc1CN(C)[C@H]1CC[C@H](CC(=O)O)CC1 [Compound 144]	40
CC(C)OC(=O)[C@H](CO)NCc1cc(Cl)c(Cn2ncc3c(-c4cccc(-c5ccc(CNC[C@@H]6CCC(=O)N6)cc5)c4Cl)cccc32)cc1OCc1cncc(C#N)c1 [Compound 23]	512
COc1cc(Cn2ncc3c(-c4cccc(-c5cc(F)c(CNC[C@@H]6CCC(=O)N6)c(OC)c5)c4Cl)cccc32)c(Cl)cc1CN(C)C1CCC(CC(=O)O)CC1 (stereo partly drawn) [Compound 115]	16
COc1cc(Cn2ncc3c(-c4cccc(-c5ccc(CNC[C@@H]6CCC(=O)N6)cc5)c4Cl)cccc32)c(F)cc1CN(C)CC1CCC(C(=O)O)CC1 (stereo partly drawn) [Compound 111]	1040
COc1cc(Cn2ncc3c(-c4cccc(-c5cc(F)c(CNC[C@@H]6CCC(=O)N6)c(OC)c5)c4Cl)cccc32)c(C#N)cc1CN(C)[C@]12CC[C@@](C(=O)O)(CC1)CC2 [Compound 140]	25
COc1cc(Cn2ncc3c(-c4cccc(-c5ccc(CNC[C@@H]6CCC(=O)N6)cc5)c4Cl)cccc32)c(Cl)cc1CNC1CCC(C(=O)O)CC1 (stereo partly drawn) [Compound 40]	213
COc1nc(-c2cccc(-c3cccc4c3cnn4Cc3nc(OC)c(CN(C)C45CCC(C(=O)O)(CC4)CC5)cc3Cl)c2Cl)ccc1CNC[C@@H]1CCC(=O)N1 [Compound 137]	41
COc1cc(Cn2ncc3c(-c4cccc(-c5cc(F)c(CNC[C@@H]6CCC(=O)N6)c(OC)c5)c4Cl)cccc32)c(Cl)cc1CN(C)[C@H]1CC[C@H](O)CC1 [Compound 162]	44
COc1cc(-c2cccc(-c3cccc4c3cnn4Cc3cc(OC)c(CN[C@@H](CO)C(=O)O)cc3Cl)c2Cl)ccc1CNC[C@@H]1CCC(=O)N1 [Compound 53]	24
COc1cc(-c2cccc(-c3cccc4c3cnn4Cc3cc(OC)c(CN(C)C4CC(CC(=O)O)C4)cc3Cl)c2Cl)ccc1CNC[C@@H]1CCC(=O)N1 (stereo partly drawn) [Compound 119]	152
COc1cc(Cn2ncc3c(-c4cccc(-c5ccc(CNC[C@@H]6CCC(=O)N6)cc5)c4Cl)cccc32)c(Cl)cc1CNCC(=O)O [Compound 32]	244
COc1cc(-c2cccc(-c3cccc4c3cnn4Cc3cc(OC)c(CN(C)C4CCC(CC(=O)O)CC4)cc3C#N)c2Cl)ccc1CNC[C@@H]1CCC(=O)N1 (stereo partly drawn) [Compound 108]	63
COc1cc(CNC[C@@H]2CCC(=O)N2)ccc1-c1cccc(-c2cccc3c2cnn3Cc2cc(OCc3cncc(C#N)c3)c(CN[C@@H](CO)C(=O)O)cc2Cl)c1Cl [Compound 11]	112
COc1cc(-c2cccc(-c3cccc4c3cnn4Cc3cc(OC)c(CN(C)C[C@H]4CC[C@H](C(=O)O)CC4)cc3Cl)c2Cl)ccc1CNC[C@@H]1CCC(=O)N1 [Compound 55]	66
COc1cc(-c2cccc(-c3cccc4c3cnn4Cc3cc(OC)c(CN(C)C4CCC(C(=O)O)CC4)cc3Cl)c2Cl)ccc1CNC[C@@H]1CCCC(=O)N1 (stereo partly drawn) [Compound 153]	94
COc1cc(-c2cccc(-c3cccc4c3cnn4Cc3cc(OC)c(CN4CC[C@H](CC(=O)O)C4)cc3Cl)c2Cl)ccc1CNC[C@@H]1CCC(=O)N1 [Compound 99]	62
Cc1c(-c2ccc(CNC[C@@H]3CCC(=O)N3)cc2)cccc1-c1cccc2c1cnn2Cc1cc(OCc2cncc(C#N)c2)c(CN[C@@H](CO)C(=O)O)cc1Cl [Compound 2]	85

Reference: patent US12583839B2, “PD-L1 antagonist compound” (ADLAI NORTYE BIOPHARMA CO., LTD., priority 2019, dated 2026)
